The compounds below were run against T1, p53 Y220C (Homo sapiens, UniProt P04637, Y220C) (assay: In vitro DNA binding activity assay (HTRF / TR-FRET): stabilization of p53 Y220C and increase of its DNA binding activity). Conditions: recombinant His-tagged p53 Y220C DNA binding domain (aa 94-312), biotin-labeled consensus DNA, incubated at 27° C. or 29° C. for 60 min.
T1 construct: The recombinant protein was a truncation mutant containing only amino acids 94-312 of p53; made in house; host or cells: E. coli
T1 sequence (P04637 94-312, change not shown): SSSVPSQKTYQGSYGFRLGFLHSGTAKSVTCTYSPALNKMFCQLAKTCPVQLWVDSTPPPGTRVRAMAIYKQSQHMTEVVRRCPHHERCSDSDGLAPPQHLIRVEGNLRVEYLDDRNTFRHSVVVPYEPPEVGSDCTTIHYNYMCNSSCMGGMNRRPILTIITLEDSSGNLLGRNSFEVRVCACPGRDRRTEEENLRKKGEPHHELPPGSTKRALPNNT
Type: biochemical
Procedure, shortened: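 Homogeneous time-resolved fluorescence with E. coli-derived p53 Y220C and biotinylated consensus DNA. Room-temperature incubations of 15 and 20 min precede reading. SC150 denotes the compound concentration required for 50% increased DNA binding.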

| Structure (SMILES) | SC150 (concentration of the compound required to increase the DNA binding activity by 50%) |
| --- | --- |
| CCCn1c(C#CCNc2ccc(S(C)(=O)=O)cc2OC)cc2c(NC3CCN(CC(O)COC)CC3)cccc21 (centres unmarked) [Compound 697A, 1-{4-[(2-{3-[(4-methanesulfonyl-2-methoxyphenyl)amino]prop-1-yn-1-yl}-1-propyl-1H-indol-4-yl)amino]piperidin-1-yl}-3-methoxypropan-2-ol] | + (+ = 0 μM ≤ SC150 < 0.05 μM) |
| CCN1CC[C@H](Nc2cccc3c2cc(C#CCNc2ccc(C(=O)O)cc2OC)n3CC(F)(F)F)[C@H](F)C1 (racemic) [Compound 958A, 4-((3-(4-(((3R,4S)-1-ethyl-3-fluoropiperidin-4-yl)amino)-1-(2,2,2-trifluoroethyl)-1H-indol-2-yl)prop-2-yn-1-yl)amino)-3-methoxybenzoic acid] | + (+ = 0 μM ≤ SC150 < 0.05 μM) |
| COc1cc(C(=O)N2CC3(COC3)C2)ccc1NCC#Cc1cc2c(NC3CCN(C)CC3)cccc2n1CC(F)(F)F [Compound 502A, 2-{3-[(2-methoxy-4-{2-oxa-6-azaspiro[3.3]heptane-6-carbonyl}phenyl)amino]prop-1-yn-1-yl}-N-(1-methylpiperidin-4-yl)-1-(2,2,2-trifluoroethyl)-1H-indol-4-amine] | + (+ = 0 μM ≤ SC150 < 0.05 μM) |
| COc1cc(S(N)(=O)=O)ccc1NCC#Cc1cc2c(N[C@H]3CC[C@H](N4CCCC(OC)C4)CC3)cccc2n1CC(F)(F)F (stereo partly drawn) [Compound 358A, 3-methoxy-4-{[3-(4-{[(1R,4R)-4-(3-methoxypiperidin-1-yl)cyclohexyl]amino}-1-(2,2,2-trifluoroethyl)-1H-indol-2-yl)prop-2-yn-1-yl]amino}benzene-1-sulfonamide] | + (+ = 0 μM ≤ SC150 < 0.05 μM) |
| COCC(O)CN1CC[C@H](Nc2cccc3c2cc(C#CCNc2ccc(S(C)(=O)=O)cc2OC)n3CC(F)(F)F)[C@H](C)C1 (mixture of isomers) [Compound 701A, rac-1-[(3R,4R)-4-[(2-{3-[(4-methanesulfonyl-2-methoxyphenyl)amino]prop-1-yn-1-yl}-1-(2,2,2-trifluoroethyl)-1H-indol-4-yl)amino]-3-methylpiperidin-1-yl]-3-methoxypropan-2-ol] | + (+ = 0 μM ≤ SC150 < 0.05 μM) |
| CS(=O)(=O)c1ccc(NCC#Cc2cc3c(N[C@H]4CC[C@H](N5CC6(COC6)C5)CC4)cccc3n2CC(F)(F)F)c(OCC#N)c1 [Compound 222A, 2-(5-methanesulfonyl-2-{[3-(4-{[(1R,4R)-4-{2-oxa-6-azaspiro[3.3]heptan-6-yl}cyclo-hexyl]amino}-1-(2,2,2-trifluoroethyl)-1H-indol-2-yl)prop-2-yn-1-yl]amino}phenoxy) acetonitrile] | + (+ = 0 μM ≤ SC150 < 0.05 μM) |
| COc1cc(S(N)(=O)=O)ccc1NCC#Cc1cc2c(N[C@H]3CCNC[C@H]3F)cccc2n1CC(F)(F)F [Compound 846A] | + (+ = 0 μM ≤ SC150 < 0.05 μM) |
| N#CCOc1cc(S(N)(=O)=O)ccc1NCC#Cc1cc2c(N[C@H]3CC[C@H](N4CCOCC4)CC3)cccc2n1CC(F)(F)F [Compound 342A, 3-(cyanomethoxy)-4-{[3-(4-{[(1R,4R)-4-(morpholin-4-yl)cyclohexyl]amino}-1-(2,2,2-trifluoroethyl)-1H-indol-2-yl)prop-2-yn-1-yl]amino}benzene-1-sulfonamide] | + (+ = 0 μM ≤ SC150 < 0.05 μM) |
| CCS(=O)(=O)c1ccc(NCC#Cc2cc3c(N[C@H]4CC[C@H](N5CC6(COC6)C5)CC4)cccc3n2CC(F)(F)F)c(OC)c1 [Compound 269A, N-((1R,4R)-4-(2-oxa-6-azaspiro[3.3]heptan-6-yl)cyclohexyl)-2-(3-((4-(ethylsulfonyl)-2-methoxyphenyl)amino)prop-1-yn-1-yl)-1-(2,2,2-trifluoroethyl)-1H-indol-4-amine] | + (+ = 0 μM ≤ SC150 < 0.05 μM) |
| COc1cc(S(C)(=O)=O)ccc1NCC#Cc1cc2c(N[C@H]3CC[C@H](N4CCC5(CCOCC5)CC4)CC3)cccc2n1CC(F)(F)F [Compound 414A, 2-{3-[(4-methane-sulfonyl-2-methoxy-phenyl)amino]prop-1-yn-1-yl}-N-[(1R,4R)-4-{3-oxa-9-azaspiro[5.5]undecan-9-yl}cyclohexyl]-1-(2,2,2-trifluoroethyl)-1H-indol-4-amine] | + (+ = 0 μM ≤ SC150 < 0.05 μM) |
| CNC(=O)c1ccc(NCC#Cc2cc3c(N[C@H]4CC[C@@H](N5CCOCC5)CC4)cccc3n2CC(F)(F)F)c(OC)c1 [Compound 173A, 3-methoxy-N-methyl-4-{[3-(4-{[(1S,4S)-4-(morpholin-4-yl)cyclohexyl]amino}-1-(2,2,2-trifluoro-ethyl)-1H-indol-2-yl)prop-2-yn-1-yl]amino}benzamide] | + (+ = 0 μM ≤ SC150 < 0.05 μM) |
| COc1cc(S(=O)(=O)N2CCOCC2)ccc1NCC#Cc1cc2c(NC3CCN(CC(O)CO)CC3)cccc2n1CC(F)(F)F (centres unmarked) [Compound 582A, 3-(4-{[2-(3-{[2-methoxy-4-(morpholine-4-sulfonyl)phenyl]amino}prop-1-yn-1-yl)-1-(2,2,2-trifluoroethyl)-1H-indol-4-yl]amino}piperidin-1-yl)propane-1,2-diol] | + (+ = 0 μM ≤ SC150 < 0.05 μM) |
| COc1cc(C(=O)NC(CCO)CCO)ccc1NCC#Cc1cc2c(N[C@@H]3CCN(C)C[C@@H]3F)cccc2n1CC(F)(F)F [Compound 965A, N-(1,5-dihydroxypentan-3-yl)-4-{[3-(4-{[(3S,4R)-3-fluoro-1-methylpiperidin-4-yl]amino}-1-(2,2,2-trifluoroethyl)-1H-indol-2-yl)prop-2-yn-1-yl]amino}-3-methoxybenzamide] | + (+ = 0 μM ≤ SC150 < 0.05 μM) |

The next lines start with the values.

| SC150 (concentration of the compound required to increase the DNA binding activity by 50%) | Structure (SMILES) |
| --- | --- |
| + (+ = 0 μM ≤ SC150 < 0.05 μM) | COc1cc(S(C)(=O)=O)ccc1NCC#Cc1cc2c(N[C@@H]3CCN(C)C[C@H]3F)cccc2n1CC(F)(F)F (racemic) [Compound 769A, (rac)-N-((3R,4R)-3-fluoro-1-methylpiperidin-4-yl)-2-(3-((2-methoxy-4-(methylsulfonyl)phenyl)amino)prop-1-yn-1-yl)-1-(2,2,2-trifluoroethyl)-1H-indol-4-amine] |
| + (+ = 0 μM ≤ SC150 < 0.05 μM) | COc1cc(S(=O)(=O)NC(C)=O)ccc1NCC#Cc1cc2c(N[C@H]3CC[C@H](N(C)C)CC3)cccc2n1CC(F)(F)F [Compound 83A, N-(3-methoxy-4-{[3-(4-{[(1R,4R)-4-(dimethylamino)cyclohexyl]amino}-1-(2,2,2-trifluoroethyl)-1H-indol-2-yl)prop-2-yn-1-yl]amino}benzenesulfonyl)acetamide] |
| + (+ = 0 μM ≤ SC150 < 0.05 μM) | COc1cc(S(N)(=O)=O)ccc1NCC#Cc1cc2c(NC3CCN(CCOC(C)=O)CC3)cccc2n1CC(F)(F)F [Compound 618A] |
| + (+ = 0 μM ≤ SC150 < 0.05 μM) | COc1cc(S(=O)(=O)N(C)CCN(C)C)ccc1NCC#Cc1cc2c(NC3CCS(=O)(=O)CC3)cccc2n1CC(F)(F)F [Compound 1043A, N-[2-(dimethylamino)ethyl]-4-[(3-{4-[(1,1-dioxo-1λ^6-thian-4-yl)amino]-1-(2,2,2-trifluoroethyl)-1H-indol-2-yl}prop-2-yn-1-yl)amino]-3-methoxy-N-methylbenzene-1-sulfonamide] |
| + (+ = 0 μM ≤ SC150 < 0.05 μM) | COc1cc(S(N)(=O)=O)ccc1NCC#Cc1cc2c(NC3CCN(C[C@@H](CO)OC)CC3)cccc2n1CC(F)(F)F [Compound 632A, 4-({3-[4-({l-[(2S)-3-hydroxy-2-methoxypropyl]piperidin-4-yl}amino)-1-(2,2,2-trifluoroethyl)-1H-indol-2-yl]prop-2-yn-1-yl}amino)-3-methoxybenzene-1-sulfonamide] |
| + (+ = 0 μM ≤ SC150 < 0.05 μM) | CCNC(=O)c1ccc(NCC#Cc2cc3c(N[C@H]4CC[C@H](N(C)C)CC4)cccc3n2CC(F)(F)F)c(OC)c1 [Compound 101A, N-ethyl-3-methoxy-4-{[3-(4-{[(1R,4R)-4-(dimethylamino)cyclo-hexyl]amino}-1-(2,2,2-trifluoroethyl)-1H-indol-2-yl)prop-2-yn-1-yl]amino}benzamide] |
| + (+ = 0 μM ≤ SC150 < 0.05 μM) | CCC(=O)OC(C)CN1CCC(Nc2cccc3c2cc(C#CCNc2ccc(S(N)(=O)=O)cc2OC)n3CC(F)(F)F)CC1 (centres unmarked) [Compound 605A, 1-{4-[(2-{3-[(2-methoxy-4-sulfamoylphenyl)amino]prop-1-yn-1-yl}-1-(2,2,2-trifluoroethyl)-1H-indol-4-yl)amino]piperidin-1-yl} propan-2-yl propanoate] |
| + (+ = 0 μM ≤ SC150 < 0.05 μM) | COc1cc(S(=O)(=O)N(C)C)ccc1NCC#Cc1cc2c(NC3CCOCC3)cccc2n1CC(F)(F)F [Compound 999A, 3-methoxy-N,N-dimethyl-4-[(3-{4-[(oxan-4-yl)amino]-1-(2,2,2-trifluoroethyl)-1H-indol-2-yl}prop-2-yn-1-yl)amino]benzene-1-sulfonamide] |
| + (+ = 0 μM ≤ SC150 < 0.05 μM) | CN[C@H]1CC[C@@H](Nc2cccc3c2cc(C#CCNc2ccc(S(C)(=O)=O)cc2OC)n3CC(F)(F)F)[C@H](F)C1 [Compound 937A] |
| + (+ = 0 μM ≤ SC150 < 0.05 μM) | COc1cc(S(C)(=O)=O)ccc1NCC#Cc1cc2c(N[C@@H]3CCO[C@@H](C)C3)cccc2n1CC(F)(F)F [Compound 1016A, 2-{3-[(4-methanesulfonyl-2-methoxyphenyl)amino]prop-1-yn-1-yl}-N-[(2S,4R)-2-methyloxan-4-yl]-1-(2,2,2-trifluoroethyl)-1H-indol-4-amine] |
